# Source: EP2364976B1, “S1P receptor modulating compounds and use thereof” (EPIX Pharmaceuticals, Inc., priority 2007, dated 2007)
# Several values for one entry are separate records, joined by “and”; a condition that tells them apart may be missing. Equal entries are not always repeated.
# Molecular target: T1, hS1P1 (Homo sapiens, UniProt P21453)
# T1 construct: expressed in transfected cells
# Experiment: hS1P1 EC50 (S1P receptor Ca2+ flux protocol, FLIPR, CHO K1 Gqi5 cells)
# Format: cell-based
# Conditions: several values per compound = repeat determinations as printed
# Procedure: S1P receptor activity may also be measured by an SIP receptor (e.g., hS1P1, hS1P3, rS1P1, rS1P3 and parental cell) Ca^2+ Flux protocol as described below: • 1. Material • a. FLIPR buffer: 1x HBSS; 10mM HEPES • b. Cell growth media: • i. human and rat S1P1 and S1P3: F12-Ham's media; 10% FBS (qualified); 1x Pen/Strep/Glu; 300ug/mL Hygromycin; 400ug/mL Geneticin ii. Parental cell: human and rat S1P and S1P3: F12-Ham's media; 10% FBS (qualified); 1x Pen/Strep/Glu; 300ug/mL Hygromycin; • c. Cell seeding media; F12-Ham's media; 10% FBS (Charcoal/dextran stripped); 1x Pen/Strep/Glu; • d. Cell dissociation buffer: Versene from Invitrogen • e. Agonist (SIP) dissolving buffer: 0.4% (w/v) fatty-acid free BSA (Sigma # A8806) in FLIPR buffer • f. FLIPR dye: BD PBX Calcium assay kit; Cat#641077 is composed of Calcium indicator (Cat#850000) and 100x PBX signal enhancer (cat#850001). The 100x PBX signal enhancer is diluted into FLIPR buffer 1:100 and the calcium indicator is then added at 1:1000 ratio. • g. Cell plates (96-well): Greiner Cat#655090 • h. Compound plates (96-well): Costar #3365 • i. S1P stock solution preparation: S1P is purchased from CalBioChem (Catalog # 970471; 1mg vial; custom prep using methanol, & nitrogen gas drying inside glass vial; Storage @ -20°C). Dissolve 1 vial of SIP into 26.4ml of agonist dissolving buffer in a 50ml centrifuge tube; Remove label from bottle of SIP, open and drop entire bottle into tube. Sonicate at 37° for ½ hour. Clear solution of 100µM will result. This stock solution is aliquoted and stored at -80C • 2. Cell line maintenance • a. V5 tags were added at the N-terminus of hS1P1, hS1P3, rS1P1 and rS1P3. All four genes were transfected into CHO K1 cells which stably express Gqi5. • b. hS1P1 and hS1P3 were established as stable clones and rS1P1 and rS1P3 were sorted by anti V5 tag and established as stable pools after sorting. • c. Parental cell line CHO/K1 Gqi5 is used as the control. • d. All the cells are maintained in cell growth media and splitted twice a week using Versene. • e. All the cell lines are used under passage 30. • 3. Assay protocol • a. Cell seeding: Cells are lifted from the flask by Versene and seeded in cell plates at 50K/well in cell seeding media. Cells are grown overnight at 37 degree. • b. Cell loading: Cell seeding media is discarded. Cells are loaded with 50ul of FLIPR dye at RT for 90 min. Signal is stable for up to 5 h after dye loading. • c. Agonist (S1P) preparation: Frozen stock of S1P is thawed out and sonicated at 37c for 30 minutes every time before use. The stock is then diluted into FLIPR buffer at proper concentration. • d. Compound preparation: Compounds are dissolved in DMSO. A 3x, 10 point dilution of the compounds are carried out in DMSO. Then the compounds are diluted into assay buffer133x so that the DMSO concentration is 0.75%. • e. Activity measurement: The fluorescence signal change of the cells upon compound addition is monitored in FLIPRtetra. 25ul of compound is transferred into the cell plates (50ul of FLIPR dye; DMSO concentration: 0.25%). Signal is recorded for 90sec after compound addition. Then 50ul of 500nM SIP is added in the cell plate, and signal is recorded for 90 seconds upon addition. • 4. Data analysis • a. Peak value is calculated for each compound/S1P addition • b. The peak value of S1P at 200nM is used as high control (100%), and the peak value of buffer only is used as low control (0%). • c. Data is normalized against high and low controls using the following equation: POC_S = 100*(RAW-LO)/(HI-LO) [formula] • d. Peak value is plotted against the concentration of compound. • e. Curve is fitted using the 4 parameter fit: Y = (A+(B/(1+(((x/C))^(∧)D)))) [formula] where: Y is POC_S (or POC) • X is compound concentration • A is the minimum (EC50min or IC50min) • B is the maxmum (EC50max or IC50max) • C is the inflection point (EC50IP or IC50IP) • D is the hill slope (EC50 slope or IC50 slope).
# T1 sequence (P21453 whole entry): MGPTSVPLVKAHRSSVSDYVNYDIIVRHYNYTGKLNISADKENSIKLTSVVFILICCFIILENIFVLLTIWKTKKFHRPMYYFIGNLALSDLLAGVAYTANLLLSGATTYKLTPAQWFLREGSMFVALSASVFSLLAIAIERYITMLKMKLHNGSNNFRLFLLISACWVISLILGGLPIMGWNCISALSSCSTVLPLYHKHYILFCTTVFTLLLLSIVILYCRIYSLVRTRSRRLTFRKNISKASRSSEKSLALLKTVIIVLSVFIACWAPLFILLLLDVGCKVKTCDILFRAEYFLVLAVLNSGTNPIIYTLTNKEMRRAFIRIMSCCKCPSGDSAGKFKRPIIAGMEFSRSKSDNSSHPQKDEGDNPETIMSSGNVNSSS
row,Compound,EC50
1,"O=C(O)C1CN(Cc2ccc(-c3cc4cc(Cc5ccccc5F)ccc4o3)c(F)c2)C1 [Reference Compound 75, 1-(3-Fluoro-4-(5-(2-fluorobenzyl)benzofuran-2-yl)benzyl)azetidine-3-carboxylic acid]",129 nM
2,CCCCOc1ccc2oc(-c3ccc(CN4CC(C(=O)O)C4)cc3)cc2c1 [Reference Compound 3],520 nM
3,"CC(C)Cc1ccc2oc(-c3ccc(CN4CC(C(=O)O)C4)cc3)cc2c1 [Reference Compound 10, 1-((4-(5-isobutylbenzofuran-2-yl)phenyl)methyl)azetidine-3-carboxylic acid]",270 nM and 490 nM and 383 nM
4,"O=C(O)C1CN(Cc2ccc(-c3cc4cc(Cc5ccccc5)cnc4o3)c(F)c2)C1 [Inventive Compound 98, 1-((3-Fluoro-4-(5-(phenylmethyl)furo[2,3-b]pyridin-2-yl)phenyl)methyl)-3-azetidinecarboxylic acid]",27 nM
5,O=C(O)C1CN(Cc2ccc(-c3cc4cc(OCC5CC5)ccc4o3)c(F)c2)C1 [Reference Compound 49],109 nM
6,O=C(O)C1CN(Cc2ccc(-c3cc4cc(Cc5ncccn5)ccc4o3)c(F)c2)C1 [Reference Compound 100],87 nM
7,"O=C(O)C1CN(Cc2cnc(-c3cc4cc(Cc5ccccc5)ccc4o3)c(F)c2)C1 [Reference Compound 84, 1-((6-(5-Benzylbenzofuran-2-yl)-5-fluoropyridin-3-yl)methyl)azetidine-3-carboxylic acid]",470 nM
8,"O=C(O)C1CN(Cc2ccc(-c3cc4cc(C5CCCC5)ccc4o3)c(Cl)c2)C1 [Reference Compound 51, 1-((3-chloro-4-(5-cyclopentylbenzofuran-2-yl)phenyl)methyl)azetidine-3-carboxylic acid]",558 nM
9,O=C(O)C1CN(Cc2ccc(-c3cc4cc(COC5CCCCC5)ccc4o3)c(F)c2)C1 [Reference Compound 70],91 nM
10,"CC(C)Cc1ccc2oc(-c3ccc(CN4CCC(C(=O)O)CC4)cc3)cc2c1 [Reference Compound 13, 1-(4-(5-isobutylbenzofuran-2yl)benzyl)piperidine-4-carboxylic acid]",1700 nM
11,"O=C(O)C1CN(Cc2ccc(-c3cc4ccc(Cc5ccccc5)cc4o3)c(F)c2)C1 [Reference Compound 92, 1-((4-(6-Benzylbenzofuran-2-yl)-3-fluorophenyl)methyl)azetidine-3-carboxylic acid]",7 nM
12,"O=C(O)C1CN(Cc2ccc(-c3cc4cc(Cc5ccccc5)ccc4o3)c(Cl)c2)C1 [Reference Compound 36, 1-((4-(5-benzylbenzofuran-2-yl)-3-chlorophenyl)methyl)azetidine-3-carboxylic acid]",199 nM
13,"O=C(O)C1CN(Cc2ccc(-c3cc4cc(N5CCCCC5)ccc4o3)c(F)c2)C1 [Reference Compound 31, 1-(3-fluoro-4-(5-(piperidin-1-yl)benzofuran-2-yl)benzyl)azetidine-3-carboxylic acid]",860 nM and 307 nM
14,"O=C(O)C1CN(Cc2ccc(-c3cc4cc(C5CCCCC5)ccc4o3)cc2)C1 [Reference Compound 6, 1-(4-(5-cyclohexylbenzofuran-2-yl)benzyl)azetidine-3-carboxylic acid]",970 nM and 400 nM and 440 nM and 421 nM
15,"O=C(O)C1CN(Cc2ccc(-c3cc4cc(Cc5ccccn5)ccc4o3)c(F)c2)C1 [Reference Compound 93, 1-((3-Fluoro-4-(5-(pyridin-2-ylmethyl)benzofuran-2-yl)phenyl)methyl)azetidine-3-carboxylic acid]",31 nM
16,"NC(=O)C(CC(=O)O)NCc1ccc(-c2cc3cc(Cc4ccccc4)ccc3o2)c(F)c1 (stereo not drawn) [Reference Compound 85, 4-Amino-3-(4-(5-benzylbenzofuran-2-yl)-3-fluorobenzylamino)-4-oxobutanoic acid]",1880 nM
17,"O=C(O)C1CN(Cc2ccc(-c3ccc4oc(Cc5ccccc5)cc4c3)c(F)c2)C1 [Reference Compound 80, 1-(4-(2-Benzylbenzofuran-5-yl)-3-fluorobenzyl)azetidine-3-carboxylic acid]",59 nM
18,O=C(O)C1CN(Cc2ccc(-c3cc4cc([S+]([O-])c5ccccc5)ccc4o3)c(F)c2)C1 (stereo not drawn) [Reference Compound 65],67 nM
